Drawing on the METLIN SMRT retention time set (Domingo-Almenara et al. 2019), this text covers RP-LC retention time for 79 molecules.

The nature of this series: gradient 5% acetonitrile 3 min, to 50% in 2 min, to 85% in 15 min, held 3 min, 100 µL/min. The following applies: column: Zorbax Extend-C18 2.1 x 50 mm; eluents: water / acetonitrile, 0.1% formic acid. Summed up: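 Retention time was recorded from adduct peaks, which were picked computationally and each inspected manually. Pure standards ran in mixtures of ~100 molecules on HPLC coupled to a quadrupole time-of-flight mass spectrometer, in positive and negative ionization mode, through a Zorbax Extend-C18 column (2.1 × 50 mm, 1.8 μm) at 100 μL/min. Eluents were water and acetonitrile, each with 0.1% formic acid.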
Molecule `O=C(NCc1ccc(N2CCCCC2)nc1)C1CCCCC1` returned an RP-LC retention time of 616 s.

`Cc1cc(=O)n(CC(=O)Nc2cc(F)ccc2F)c(N2CCCC2)n1` registered an RP-LC retention time of 641 s.

With `CC1CCCN(C(=O)C2c3ccccc3CC(=O)N2C)C1` (centres undefined), the RP-LC retention time turned out to be 748 s.

The molecule `Cc1cc(C)cc(C(=O)N2CCC3(CC2)NC(=O)c2ccccc2N3C)c1` gave an RP-LC retention time of 804 s.

In turn, `COc1cccc(Cn2nc3c(S(=O)(=O)N4CCCC4)cccn3c2=O)c1` registered an RP-LC retention time of 814 s.

The molecule `Cc1ccc(C)c(N2CCN(S(=O)(=O)c3c(C)sc(C)c3-c3n[nH]c(C)c3C)CC2)c1` had an RP-LC retention time of 1190 s.

Turning to `Cn1cc(S(=O)(=O)N2CCC(C(=O)NC3CCCCCCC3)CC2)cc1C(=O)N1CCCC1`, the RP-LC retention time came to 844 s.

`CSc1cccc(NC(=O)Cc2csc(NC(=O)C3CCC(=O)N3)n2)c1` (centres undefined) yielded an RP-LC retention time of 627 s.

As to `COCCc1nnc(NC(=O)COc2ccc(Cl)cc2)o1`, the RP-LC retention time was determined as 655 s.

As for `CCCN(C(=O)c1cccc(NC(=O)[C@H]2[C@@H]3C[C@@H]4[C@H]2C(=O)O[C@@H]4C3)c1)c1ccccc1F`, the RP-LC retention time is 853 s.

In turn, `Cc1cccc(C(=O)N2CCc3cc(CNS(=O)(=O)Cc4ccccc4)ccc32)c1` registered an RP-LC retention time of 972 s.

`O=C(O)c1cccc2c1CCN2C(=O)c1ccccc1` returned an RP-LC retention time of 731 s.

As for `CCNC(=O)N1CCCC(c2cccc(C(=O)NCc3ccc(F)cc3F)c2)C1` (centres undefined), the RP-LC retention time came to 804 s.

Turning to `CN1C(=O)C2(CCN(C(=O)Cc3cccc(F)c3)C2)c2ccccc21` (centres undefined), the RP-LC retention time is 803 s.

`NC(=O)C(=O)c1cn(Cc2ccccc2)c2ccccc12` displayed an RP-LC retention time of 872 s.

`Cc1ccccc1OCc1nc(C2CN(C(=O)NC(C)C)C2)no1` returned an RP-LC retention time of 804 s.

In the case of `Cn1cc(-c2cc3n(n2)CCC(=O)N3CCCC(=O)N2CCN(c3ccccc3)CC2)c2ccccc21`, the RP-LC retention time is 859 s.

`Cc1ccc(S(=O)(=O)Cc2ccc(-c3nc(-c4ccc5oc(C)nc5c4)no3)cc2)cc1`: the RP-LC retention time came out at 1070 s.

In turn, `CCc1ccc(CNC(=O)c2ccc3c(c2)N(C)C(=O)C2CCCCN32)cc1` (centres undefined) displayed an RP-LC retention time of 663 s.

For the molecule `CCOC(=O)c1c(C)c(C(=O)C(C)N(CC)C(=O)c2ccc(Cl)cc2)c(C)n1C` (centres undefined), the RP-LC retention time was determined as 876 s.

Consider `CCn1cc(C(=O)Nc2ccc(C)c(C)c2)c(S(=O)(=O)N2CCSCC2)n1`, for which the RP-LC retention time stood at 1050 s.

As to `Cc1ccnc(OCC(=O)Nc2ccc(OC(F)(F)F)cc2)n1`, the RP-LC retention time is 771 s.

As to `O=C(Nc1ncc(SCCN2CCCC2)s1)[C@]1(c2ccc(S(=O)(=O)C3CC3)cc2)C[C@H]1C1CCCCC1`, the RP-LC retention time was 854 s.

In turn, `CCCNC(=O)C1CCN(c2ccc(SCC(=O)Nc3cccc(C(C)C)c3)nn2)CC1` returned an RP-LC retention time of 728 s.

On to `Cc1cc2nn(CC(=O)NC(C)C)c(=O)n2c(-c2ccc(C(F)(F)F)cc2)n1`, for which the RP-LC retention time worked out at 576 s.

Regarding `O=c1c2cc(-c3ccc(F)cc3)nn2ccn1Cc1ccccc1Cl`, the RP-LC retention time stood at 1120 s.

Molecule `COc1ccc(-c2cc3nn(CC(=O)N4CCCC(C)C4)c(=O)n3c(C)n2)cc1` (centres undefined) yielded an RP-LC retention time of 902 s.

`Cc1ccc(-c2cn3ccn(-c4ccc(F)c(F)c4)c(=O)c3n2)c(C)c1` had an RP-LC retention time of 924 s.

`CNc1ncnc2c1cnn2-c1ccc(F)cc1`: the RP-LC retention time was 657 s.

`CCc1noc(-c2ccc(-n3cnc(C(=O)NC(C)c4ccc(F)cc4)c3)nc2)n1` (centres undefined) returned an RP-LC retention time of 1000 s.

`CCn1c(=O)c(C(=O)NCc2cc(F)ccc2F)nc2cccnc21`: the RP-LC retention time was 802 s.

`O=C(Nc1ccccc1)N1CCCC1c1nncn1C1CCCC1` (centres undefined) came in with an RP-LC retention time of 622 s.

In turn, `Cc1cc(C)c2nc(C)cc(C(=O)NCC(C)C)c2c1` gave an RP-LC retention time of 701 s.

Turning to `CC(C)[C@H](C(=O)Nc1ccc(C(=O)NO)cc1)c1ccccc1`, the RP-LC retention time was determined as 791 s.

The molecule `Cc1csc(-c2cc(S(=O)(=O)N3CCCCCC3)c(C)n2C)n1` displayed an RP-LC retention time of 1100 s.

The molecule `COc1cc(CCC(=O)N2CCN(c3cc(=O)n(C)c(=O)n3C)CC2)cc(OC)c1OC` came in with an RP-LC retention time of 647 s.

`O=C(Nc1ccc(F)cc1)OCCOc1ccc([N+](=O)[O-])cc1`: the RP-LC retention time was 1030 s.

As for `CCOc1ccc(NC(=O)c2cnc(N3CCN(C)CC3)nc2N)cc1`, the RP-LC retention time turned out to be 602 s.

For `CCC(C)NC(=O)CN1c2ccc(F)cc2-c2ccccc2S1(=O)=O` (centres undefined), the RP-LC retention time stood at 870 s.

Molecule `COc1ccc(NC(=O)Cn2c(C(C)C)nc3c(c2=O)CCN(Cc2ccccc2)C3)c(OC)c1` registered an RP-LC retention time of 703 s.

For `CC(C)Cc1nnc(NC(=O)C2CCN(C(=O)c3ccccc3)CC2)s1`, the RP-LC retention time is 750 s.

`O=C(Cn1c(=O)c2cccn2c2ccc(F)cc21)NCCN1CCOCC1`: the RP-LC retention time was 592 s.

`CN(CCc1noc(COc2ccc(Cl)cc2)n1)C(=O)NCc1ccccc1` yielded an RP-LC retention time of 944 s.

Molecule `COc1ccc(-n2ccc(=O)c(-c3nc(-c4ccccc4Br)no3)n2)cc1` yielded an RP-LC retention time of 908 s.

For `CCc1ccc(OCC(=O)Nc2cc3c(cc2N2CCCC2)n(C)c(=O)c(=O)n3C)cc1`, the RP-LC retention time turned out to be 836 s.

In turn, `Cc1nc(-c2cn(C)c3ncccc23)sc1C(=O)Nc1ccc(F)cc1F` returned an RP-LC retention time of 940 s.

As for `C[C@@H](NC(=O)c1cccc(F)c1)C(=O)NCc1cscn1`, the RP-LC retention time turned out to be 636 s.

As for `CC(Oc1ccccc1)C(=O)N1CCCn2nc(-c3cccs3)cc2C1` (centres undefined), the RP-LC retention time worked out at 844 s.

In turn, `COc1ccc(NC(=O)N2CCc3c(c(-c4nnc(-c5ccc(F)cc5)o4)nn3C)C2)cc1OC` yielded an RP-LC retention time of 766 s.

In turn, `CCOc1ccc(N2CC(CNC(=O)Nc3cc(OC)c(OC)c(OC)c3)CC2=O)cc1` (centres undefined) displayed an RP-LC retention time of 668 s.

In turn, `CC(C)CC(=O)N1c2nc(-c3ccccc3)nn2C2(CCCCC2)[C@@H]2CCCC[C@@H]21` registered an RP-LC retention time of 674 s.

On to `CCOC(=O)c1ccc(NC(=O)NC2CC(=O)N(C3CCCC3)C2)cc1` (centres undefined), for which the RP-LC retention time amounted to 768 s.

For the molecule `O=C(c1csc(-c2ccc(N3CCCC3)nc2)n1)N1CCCCCC1`, the RP-LC retention time worked out at 937 s.

Turning to `Cc1cc(=O)n(CC(=O)N2CCN(c3ccc(F)cc3)CC2)c(-c2ccc(F)cc2)n1`, the RP-LC retention time was 1010 s.

Molecule `Cc1nc(-c2cc(S(=O)(=O)NCc3ccc(OC(C)C)cc3)c(C)s2)cs1` displayed an RP-LC retention time of 1080 s.

Regarding `CCc1nc2cc(-c3noc(Cc4ccc(F)cc4)n3)ccc2o1`, the RP-LC retention time came out at 1070 s.

`O=C(Cc1ccc(Br)cc1)N1CCN(C(=O)c2cc(-c3ccncc3)n[nH]2)CC1` registered an RP-LC retention time of 622 s.

The molecule `O=[N+]([O-])c1ccc(-c2nc(NC3CCCCC3)c3ccccc3n2)cc1` gave an RP-LC retention time of 921 s.

With `O=c1c2nnn(-c3cccc(F)c3)c2ncn1Cc1cccnc1`, the RP-LC retention time was 587 s.

Turning to `CCc1ccccc1NC(=O)Cn1c(=O)cc(-c2nc(C3CC3)no2)c2ccccc21`, the RP-LC retention time was 990 s.

`CCc1ccccc1NC(=O)N1CCC(OC2CCN(S(C)(=O)=O)CC2)CC1` showed an RP-LC retention time of 770 s.

For `Cc1ccc(CSc2nnc3c(S(=O)(=O)N4CCCCC4)cccn23)cc1`, the RP-LC retention time stood at 928 s.

`c1cc(CN2CCCCC2c2nncn2CC2CC2)cs1` (centres undefined) displayed an RP-LC retention time of 559 s.

The molecule `CCOc1ccc(-n2c(=O)c3sccc3n(Cc3nc(-c4ccc(Cl)c(F)c4)no3)c2=O)cc1` showed an RP-LC retention time of 1140 s.

The molecule `Cc1cc(C)c(S(=O)(=O)N2CC(c3nc(Cc4ccccc4)no3)C2)cc1C` had an RP-LC retention time of 1190 s.

Molecule `COc1ccc(CNC(=O)C2CCCN(c3nc4c(s3)c(C)nn4-c3ccc(Cl)cc3)C2)cc1` (centres undefined) gave an RP-LC retention time of 1200 s.

For `Cc1nnc(N2CCC(C(=O)NCCN(C)C)CC2)c2nn(-c3ccc(Cl)cc3)c(C)c12`, the RP-LC retention time was found to be 586 s.

Regarding `O=S(=O)(NCC1CCCO1)c1cccc2cccnc12` (centres undefined), the RP-LC retention time turned out to be 680 s.

With `COc1cccc(NC(=O)C2c3cc(OC)c(OC)cc3C(=O)N3CCc4ccccc4C23)c1` (centres undefined), the RP-LC retention time was 809 s.

Molecule `CCN1C(=O)CN(C(=O)c2ccsc2)CC12CCOCC2` registered an RP-LC retention time of 621 s.

The molecule `Cc1ccc2nc(-c3ccc(O)cc3)c(Nc3ccc(Cl)cc3)n2c1` showed an RP-LC retention time of 671 s.

Consider `CCNC(=O)C1CCN(c2nc3ccc(-c4ccccc4F)nc3s2)CC1`, for which the RP-LC retention time is 848 s.

`COc1cc(NC(=O)N2CCCN(c3ccc(=O)n(-c4ccccc4)n3)CC2)cc(OC)c1OC` showed an RP-LC retention time of 694 s.

As to `CCN1C(=O)C(C)(C(=O)Nc2cccc(Cl)c2)Oc2cccnc21` (centres undefined), the RP-LC retention time stood at 982 s.

Regarding `Cc1ccc(N2CC(c3noc(C4(c5ccccc5)CC4)n3)CC2=O)cc1` (centres undefined), the RP-LC retention time came out at 989 s.

Turning to `CNC(=O)N1CCCN(C2=NS(=O)(=O)C(c3ccccc3)=C2C)CC1`, the RP-LC retention time was 594 s.

On to `CCCn1cc(CCNS(=O)(=O)c2ccc(C(C)(C)C)cc2)c2cccnc21`, for which the RP-LC retention time was determined as 1070 s.

Molecule `Cc1nc(-c2ccc3c(c2)CCN3C(=O)COc2ccc(Cl)cc2)cs1` yielded an RP-LC retention time of 1080 s.

Turning to `O=C(Cc1ccc(NC(=O)c2ccsc2)cc1)NCc1cccs1`, the RP-LC retention time was found to be 725 s.
